One assay has as its system MDA-MB-436. As to the kind of experiment: Cell growth inhibition, MDA-MB-436 breast cancer cells (WST-8). The format is cell-based. Particulars: Homo sapiens, MDA-MB-436, 96 h; 4 days; read-out: IC50 (nM) MDA-MB-436 Cell Line (WST assay). A digest of the protocol:
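IC50 was computed from WST-8-based cell counting in MDA-MB-436 cells, with absorbance read at 450 nm.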

In another assay the target is T1, recombinant BRD4 BD1 (Homo sapiens, UniProt O60885).
T1 construct: for recombinant BRD4 BD1 and BRD4 BD2 proteins
Kind of assay: Competitive fluorescence-polarization (FP) binding assay, BRD4 BD1. Also: probe 1.5 nM. Particulars: competitive FP assay; protein 10 nM, probe […]; read-out: IC50 (nM) BRD4 BD1. A digest of the protocol:
(§1)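 FP competition with FAM-labelled probe (ZBA248 or BRD-1F) against preincubated protein/probe complex; BD1 at 10 nM and BD2 at 6 nM final, in 100 mM potassium phosphate pH 6.5, 0.01% Triton X-100. 30 min, room temperature. IC50 by nonlinear regression; Ki also derived, using probe Kd from protein saturation.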

The target of the next assay is T2, recombinant BRD4 BD2 (Homo sapiens, UniProt O60885).
T2 construct: for recombinant BRD4 BD1 and BRD4 BD2 proteins
As to the kind of experiment: Competitive fluorescence-polarization (FP) binding assay, BRD4 BD2. Also: probe 1.5 nM. Conditions: competitive FP assay; protein 6 nM, probe […]; read-out: IC50 (nM) BRD4 BD2. Summed up: as §1

A further assay relates to MOLM-13. As to the kind of experiment: Cell growth inhibition, MOLM-13 leukemia cells (CellTiter-Glo). The format is cell-based. Particulars: Homo sapiens, MOLM-13, 96 h; 4 days; read-out: IC50 (nM) MOLM-13 Cell Line (CellTiter-Glo assay). The protocol: Cell growth inhibitory activity of representative Compounds of the Disclosure was determined using CellTiter-Glo® Luminescent Cell Viability Assay. […] Cell viability was determined using the CellTiter-Glo® Luminescent Cell Viability Assay Kit (Promega, Madison, Wis.) according to the manufacture's instruction. Briefly, a volume of CellTiter-Glo® Reagent equal to the volume of cell culture medium was added to each well, and then the plates were incubated at room temperature for 10-20 minutes. The luminescent signal was measured using a Tecan Infinite M1000 multimode microplate reader (Tecan, Morrisville, N.C.). The half maximal inhibitory concentration (IC50) was calculated using the GraphPad Prism 5 software (GraphPad Software, La Jolla, Calif.).

For `COc1cc2c(cc1-c1c(C)noc1C)[nH]c1nc(C)nc(Nc3ncnn3C(C)C)c12` [Cpd. No. 29, 7-(3,5-dimethylisoxazol-4-yl)-N-(1-isopropyl-1H-1,2,4-triazol-5-yl)-6-methoxy-2-methyl-9H-pyrimido[4,5-b]indol-4-amine], the IC50 is 1110 nM in the assay on MDA-MB-436, greater than 1000 nM on recombinant BRD4 BD1, greater than 1000 nM on recombinant BRD4 BD2 and 82.1 nM in the assay on MOLM-13.

With `COc1cc2c(cc1-c1c(C)noc1C)[nH]c1nc(C)nc(Nc3[nH]ncc3C(C)C)c12` [Cpd. No. 32, 7-(3,5-dimethylisoxazol-4-yl)-N-(4-isopropyl-1H-pyrazol-5-yl)-6-methoxy-2-methyl-9H-pyrimido[4,5-b]indol-4-amine], the IC50 was 155 nM in the assay on MDA-MB-436, 26.5 nM at recombinant BRD4 BD1, 39.4 nM at recombinant BRD4 BD2 and 40.9 nM with MOLM-13.

As for `COc1cc2c(cc1-c1c(C)noc1C)[nH]c1nc(C)nc(Nc3scnc3C(C)(C)C)c12` [Cpd. No. 33, 4-(tert-butyl)-N-(7-(3,5-dimethylisoxazol-4-yl)-6-methoxy-2-methyl-9H-pyrimido[4,5-b]indol-4-yl)thiazol-5-amine], the concentration for half-maximal inhibition (IC50) in the assay on MDA-MB-436 worked out at 303 nM; at recombinant BRD4 BD1, 24.5 nM; on recombinant BRD4 BD2, 21.5 nM; in the assay on MOLM-13, 2420 nM.

For the compound `COc1cc2c(cc1-c1c(C)noc1C)[nH]c1nc(C)nc(Nc3cn(C)nc3C)c12` [Cpd. No. 34, N-(1,3-dimethyl-1H-pyrazol-4-yl)-7-(3,5-dimethylisoxazol-4-yl)-6-methoxy-2-methyl-9H-pyrimido[4,5-b]indol-4-amine], the IC50 amounted to 97.6 nM in the assay with MDA-MB-436, 30.2 nM at recombinant BRD4 BD1, 28.7 nM on recombinant BRD4 BD2 and 32.7 nM in the assay on MOLM-13.

For the compound `COc1cc2c(cc1-c1c(C)noc1C)[nH]c1nc(C)nc(Nc3c(C)nn(C)c3C)c12` [Cpd. No. 35, 7-(3,5-dimethylisoxazol-4-yl)-6-methoxy-2-methyl-N-(1,3,5-trimethyl-1H-pyrazol-4-yl)-9H-pyrimido[4,5-b]indol-4-amine], the IC50 in the assay with MDA-MB-436 was 88.9 nM; on recombinant BRD4 BD1, 20.4 nM; at recombinant BRD4 BD2, 42.9 nM; in the assay with MOLM-13, 38.9 nM.

For `COc1cc2c(cc1-c1c(C)noc1C)[nH]c1nc(C)nc(Nc3c(C)nn(C(C)C)c3C)c12` [Cpd. No. 36, 7-(3,5-dimethylisoxazol-4-yl)-N-(1-isopropyl-3,5-dimethyl-1H-pyrazol-4-yl)-6-methoxy-2-methyl-9H-pyrimido[4,5-b]indol-4-amine], the IC50 with MDA-MB-436 is 236 nM; on recombinant BRD4 BD1, 68.5 nM; at recombinant BRD4 BD2, 92.6 nM; in the assay on MOLM-13 it was 103 nM.

With `COc1cc2c(cc1-c1c(C)noc1C)[nH]c1nc(C)nc(Nc3c(C)cnn3C(C)C)c12` [Cpd. No. 37, 7-(3,5-dimethylisoxazol-4-yl)-N-(1-isopropyl-4-methyl-1H-pyrazol-5-yl)-6-methoxy-2-methyl-9H-pyrimido[4,5-b]indol-4-amine], the IC50 with MDA-MB-436 worked out at 56.2 nM; on recombinant BRD4 BD1 it was 12.1 nM; at recombinant BRD4 BD2 it was 6.5 nM; with MOLM-13, 54.1 nM.

As to `COc1cc2c(cc1-c1c(C)noc1C)[nH]c1nc(C)nc(Nc3n[nH]c4ccccc34)c12` [Cpd. No. 58, 7-(3,5-Dimethylisoxazol-4-yl)-N-(1H-indazol-3-yl)-6-methoxy-2-methyl-9H-pyrimido[4,5-b]indol-4-amine], the IC50 worked out at 54.6 nM in the assay with MDA-MB-436, 11 nM at recombinant BRD4 BD1, 22.6 nM on recombinant BRD4 BD2 and 32 nM in the assay with MOLM-13.

Take `COc1cc2c(cc1-c1c(C)noc1C)[nH]c1nc(C)nc(Nc3nn(C)c4cc(F)ccc34)c12` [Cpd. No. 59, 7-(3,5-Dimethylisoxazol-4-yl)-N-(6-fluoro-1-methyl-1H-indazol-3-yl)-6-methoxy-2-methyl-9H-pyrimido[4,5-b]indol-4-amine]: the IC50 is 535 nM in the assay on MDA-MB-436, 90.5 nM on recombinant BRD4 BD1, 174 nM on recombinant BRD4 BD2 and 401 nM with MOLM-13.

Take `COc1cc2c(cc1-c1c(C)noc1C)[nH]c1nc(C)nc(Nc3cc(C(C)C)nn3C)c12` [Cpd. No. 65, 7-(3,5-Dimethylisoxazol-4-yl)-N-(3-isopropyl-1-methyl-1H-pyrazol-5-yl)-6-methoxy-2-methyl-9H-pyrimido[4,5-b]indol-4-amine]: the 50% inhibitory concentration (IC50) came out at 26 nM with MDA-MB-436, 6.1 nM at recombinant BRD4 BD1, 4.1 nM on recombinant BRD4 BD2 and 11.7 nM in the assay with MOLM-13.

Take `COc1cc2c(cc1-c1c(C)noc1C)[nH]c1nc(C)nc(Nc3c(C)cnn3C)c12` [Cpd. No. 76, N-(1,4-dimethyl-1H-pyrazol-5-yl)-7-(3,5-dimethylisoxazol-4-yl)-6-methoxy-2-methyl-9H-pyrimido[4,5-b]indol-4-amine]: the IC50 came out at 156 nM in the assay with MDA-MB-436, 29.4 nM at recombinant BRD4 BD1, 23.7 nM at recombinant BRD4 BD2 and 117 nM in the assay with MOLM-13.

`COc1cc2c(cc1-c1c(C)noc1C)[nH]c1nc(C)nc(Nc3nn(C)cc3C)c12` [Cpd. No. 77, N-(1,4-dimethyl-1H-pyrazol-3-yl)-7-(3,5-dimethylisoxazol-4-yl)-6-methoxy-2-methyl-9H-pyrimido[4,5-b]indol-4-amine]: the IC50 came to 351 nM in the assay with MDA-MB-436, 64.4 nM on recombinant BRD4 BD1, 168 nM on recombinant BRD4 BD2 and 242 nM in the assay with MOLM-13.

`COc1cc2c(cc1-c1c(C)noc1C)[nH]c1nc(C)nc(Nc3c(C(C)C)cnn3C)c12` [Cpd. No. 79, 7-(3,5-dimethylisoxazol-4-yl)-N-(4-isopropyl-1-methyl-1H-pyrazol-5-yl)-6-methoxy-2-methyl-9H-pyrimido[4,5-b]indol-4-amine]: the IC50 with MDA-MB-436 is 121 nM; at recombinant BRD4 BD1, 9.3 nM; on recombinant BRD4 BD2, 1.8 nM; in the assay on MOLM-13, 43.9 nM.

As for `COc1cc2c(cc1-c1c(C)noc1C)[nH]c1nc(C)nc(Nc3c(C)c(C)nn3C(C)C)c12` [Cpd. No. 81, 7-(3,5-dimethylisoxazol-4-yl)-N-(1-isopropyl-3,4-dimethyl-1H-pyrazol-5-yl)-6-methoxy-2-methyl-9H-pyrimido[4,5-b]indol-4-amine], the IC50 came to 67 nM in the assay on MDA-MB-436, 5.1 nM at recombinant BRD4 BD1, 19.6 nM on recombinant BRD4 BD2 and 22.9 nM in the assay on MOLM-13.

On to `COc1cc2c(cc1-c1c(C)noc1C)[nH]c1nc(C)nc(Nc3cccc(Cl)c3)c12` [Cpd. No. 97, N-(3-chlorophenyl)-7-(3,5-dimethylisoxazol-4-yl)-6-methoxy-2-methyl-9H-pyrimido[4,5-b]indol-4-amine], for which the IC50 in the assay on MDA-MB-436 was found to be 180 nM; on recombinant BRD4 BD1, 34 nM; on recombinant BRD4 BD2, 8 nM; in the assay with MOLM-13 it was 43 nM.

Turning to `COc1cc2c(cc1-c1c(C)noc1C)[nH]c1nc(C)nc(Nc3c(-c4ccccc4)noc3C)c12` [Cpd. No. 98, N-(7-(3,5-dimethylisoxazol-4-yl)-6-methoxy-2-methyl-9H-pyrimido[4,5-b]indol-4-yl)-5-methyl-3-phenylisoxazol-4-amine], the IC50 with MDA-MB-436 was 380 nM; on recombinant BRD4 BD1, 76 nM; at recombinant BRD4 BD2, 13 nM; with MOLM-13, 171 nM.

With `COc1cc2c(cc1-c1c(C)noc1C)[nH]c1nc(C)nc(Nc3cnc4ccccn34)c12` [Cpd. No. 99, 7-(3,5-dimethylisoxazol-4-yl)-N-(imidazo[1,2-a]pyridin-3-yl)-6-methoxy-2-methyl-9H-pyrimido[4,5-b]indol-4-amine], the IC50 turned out to be 307 nM in the assay on MDA-MB-436, 47 nM at recombinant BRD4 BD1, 87 nM at recombinant BRD4 BD2 and 206 nM in the assay on MOLM-13.

For the origin of these results see patent publication US9580430B2, “9H-pyrimido[4,5-B]indoles and related analogs as BET bromodomain inhibitors” (THE REGENTS OF THE UNIVERSITY OF MICHIGAN, priority 2014, dated 2017).
